Assay results as given in US20240108623A1, “METHODS OF TREATING CANCER WITH POZIOTINIB” (BOARD OF REGENTS, THE UNIVERSITY OF TEXAS SYSTEM, priority 2021, published 2024).

What was measured:
Experiment in all cases: Ba/F3 cell drug screening, Cell Titer Glo
Assay type in all cases: cell-based
[1] = molecular target: T1, EGFR E709K G719S (Homo sapiens, UniProt P00533, E709K/G719S); conditions: Ba/F3 cells expressing EGFR E709K G719S; 72 hours
T1 construct: expressed in transfected cells; host or cells: Ba/F3 (retroviral transduction, pBabe-Puro based vectors)
Experimental: (§1) Ba/F3 cell generation, drug screening, and IC50 approximations. Ba/F3 cells were obtained as a gift from Dr. Gordon Mills (MD Anderson Cancer Center), and maintained in RPMI (Sigma) containing 10% FBS, 1% penicillin/streptomycin, and 10 ng/ml recombinant mIL-3 (R&D Biosystems). To establish stable Ba/F3 cell lines, Ba/F3 cells were transduced with retroviruses containing mutant EGFR plasmids for 12-24 hours. Retroviruses were generated using Lipofectamine 2000 (Invitrogen) transfections of Phoenix 293T-ampho cells (Orbigen) with pBabe-Puro based vectors listed below in Table 6. Vectors were generated by GeneScript or Bioinnovatise using parental vectors from Addgene listed below in Table 6.
(§2) After 48-72 hours of transduction, 2 μg/ml puromycin (Invitrogen) was added to Ba/F3 cell lines in complete RPMI. To select for EGFR positive cell lines, cells were stained with PE-EGFR (Biolegend) and sorted by FACS. After sorting, EGFR positive cells were maintained in RPMI containing 10% FBS, 1% penicillin/streptomycin, and 1 ng/ml EGF to support cell viability. Drug screening was performed as previously described^41,42. Shortly, cells were plated in 384-well plates (Greiner Bio-One) at 2000-3000 cells per well in technical triplicate. Seven different concentrations of TKIs or DMSO vehicle were added to reach a final volume of 40 μL per well. After 72 hours, 11p L of Cell Titer Glo (Promega) was added to each well. Plates were incubated for a minimum of 10 minutes, and bioluminescence was determined using a FLUOstar OPTIMA plate reader (BMG LABTECH). Raw bioluminescence values were normalized to DMSO control treated cells, and values were plotted in GraphPad Prism. Non-linear regressions were used to fit the normalized data with a variable slope, and IC50 values were determined by GraphPad prism by interpolation of concentrations at 50% inhibition. Drug screens were performed in technical triplicate on each plate and either duplicate or triplicate biological replicates. Mutant to WT ratios (Mut/WT) for each drug were calculated by dividing the IC50 values of mutant cell lines by the average IC50 value of Ba/F3 cells expressing WT EGFR supplemented with 10 ng/ml EGF for each drug. Statistical differences between groups were determined by ANOVA as described in the figure legends.

[2] = molecular target: T2, EGFR Ex19del G796S (Homo sapiens, UniProt P00533, DEL746-750/G796S); conditions: Ba/F3 cells expressing EGFR Ex19del G796S; 72 hours
T2 construct: expressed in transfected cells; host or cells: Ba/F3 (retroviral transduction, pBabe-Puro based vectors)
Experimental: as §1, §2

[3] = molecular target: T3, EGFR Ex19del L718Q (Homo sapiens, UniProt P00533, DEL746-750/L718Q); conditions: Ba/F3 cells expressing EGFR Ex19del L718Q; 72 hours
T3 construct: expressed in transfected cells; host or cells: Ba/F3 (murine pro-B cells), retroviral transduction with pBabe-Puro based vectors
Experimental: as §1, §2

[4] = molecular target: T4, EGFR Ex19del/L792H (Homo sapiens, UniProt P00533, DEL746-750/L792H); conditions: Ba/F3 cells expressing EGFR Ex19del/L792H; 72 hours
T4 construct: expressed in transfected cells; host or cells: Ba/F3 (retroviral transduction, pBabe-Puro based vectors)
Experimental: as §1, §2

[5] = molecular target: T5, EGFR Ex19del/T790M/G724S (Homo sapiens, UniProt P00533, DEL746-750/G724S/T790M); conditions: Ba/F3 cells expressing EGFR Ex19del/T790M/G724S; 72 hours
T5 construct: expressed in transfected cells; host or cells: Ba/F3 (retroviral transduction, pBabe-Puro based vectors)
Experimental: as §1, §2

[6] = molecular target: T6, EGFR G719A T790M (Homo sapiens, UniProt P00533, G719A/T790M); conditions: Ba/F3 cells expressing EGFR G719A T790M; 72 hours
T6 construct: expressed in transfected cells; host or cells: Ba/F3 (retroviral transduction, pBabe-Puro based vectors)
Experimental: as §1, §2

[7] = molecular target: T7, EGFR G724S T790M (Homo sapiens, UniProt P00533, G724S/T790M); conditions: Ba/F3 cells expressing EGFR G724S T790M; 72 hours
T7 construct: expressed in transfected cells; host or cells: Ba/F3 (retroviral transduction, pBabe-Puro based vectors)
Experimental: as §1, §2

[8] = molecular target: T8, EGFR L858R T790M L792H (Homo sapiens, UniProt P00533, L792H/L858R/T790M); conditions: Ba/F3 cells expressing EGFR L858R T790M L792H; 72 hours
T8 construct: expressed in transfected cells; host or cells: Ba/F3 (retroviral transduction, pBabe-Puro based vectors)
Experimental: as §1, §2

[9] = molecular target: T9, EGFR L858R/T790M (Homo sapiens, UniProt P00533, L858R/T790M); conditions: Ba/F3 cells expressing EGFR L858R/T790M; 72 hours
T9 construct: expressed in transfected cells; host or cells: Ba/F3 (retroviral transduction, pBabe-Puro based vectors)
Experimental: as §1, §2

[10] = molecular target: T10, EGFR L861Q (Homo sapiens, UniProt P00533, L861Q); conditions: Ba/F3 cells expressing EGFR L861Q; 72 hours
T10 construct: expressed in transfected cells; host or cells: Ba/F3 (retroviral, pBabe-Puro based vector)
Experimental: as §1, §2

[11] = molecular target: T11, EGFR R776H (Homo sapiens, UniProt P00533, R776H); conditions: Ba/F3 cells expressing EGFR R776H; 72 hours
T11 construct: host or cells: Ba/F3 (retroviral transduction, pBabe-Puro based vectors)
Experimental: as §1, §2

[12] = molecular target: T12, EGFR S768dupSVD V769M (Homo sapiens, UniProt P00533, INS768MDS/V769M); conditions: Ba/F3 cells expressing EGFR S768dupSVD V769M; 72 hours
T12 construct: expressed in transfected cells; host or cells: Ba/F3 (retroviral, pBabe-Puro based vector; created by GeneScript from EGFR S768dupSVD, c.2305G > A)
Experimental: as §1, §2

[13] = molecular target: T13, EGFR S784F (Homo sapiens, UniProt P00533, S784F); conditions: Ba/F3 cells expressing EGFR S784F; 72 hours
T13 construct: expressed in transfected cells; host or cells: Ba/F3 (retroviral, pBabe-Puro based vector; created by GeneScript from EGFR WT)
Experimental: as §1, §2

[14] = molecular target: T14, EGFR V774M (Homo sapiens, UniProt P00533, V774M); conditions: Ba/F3 cells expressing EGFR V774M; 72 hours
T14 construct: host or cells: Ba/F3 (retroviral transduction, pBabe-Puro based vectors)
Experimental: as §1, §2

C=CC(=O)N1CCC(Oc2cc3c(Nc4ccc(Cl)c(Cl)c4F)ncnc3cc2OC)CC1 [Poziotinib]
Response of Cells Comprising PACC EGFR Mutations to Second-Generation TKIs [1]: 0.01609 | Response of Cells Comprising PACC EGFR Mutations to Second-Generation TKIs [2]: 0.2054 | Response of Cells Comprising PACC EGFR Mutations to Second-Generation TKIs [3]: 0.107 | Response of Cells Comprising PACC EGFR Mutations to Second-Generation TKIs [4]: 0.3177 | Response of Cells Comprising T790M-like-S EGFR Mutations to Second-Generation TKIs [5]: 19.53 | Response of Cells Comprising T790M-like-S EGFR Mutations to Second-Generation TKIs [6]: 0.4851 | Response of Cells Comprising T790M-like-R EGFR Mutations to Second-Generation TKIs [7]: 2.924 | Response of Cells Comprising T790M-like-S EGFR Mutations to Second-Generation TKIs [8]: 56.36 | Response of Cells Comprising T790M-like-S EGFR Mutations to Second-Generation TKIs [9]: 2.414 | Response of Cells Comprising Classical-Like EGFR Mutations to Second-Generation TKIs [10]: 0.02499 | Response of Cells Comprising PACC EGFR Mutations to Second-Generation TKIs [11]: 0.01644 | Response of Cells Comprising Ex20ins EGFR Mutations to Poziotinib [12]: 0.07874 | Response of Cells Comprising Classical-Like EGFR Mutations to Second-Generation TKIs [13]: 0.08572 | Response of Cells Comprising PACC EGFR Mutations to Second-Generation TKIs [14]: 0.01859
